The text below walks through data of US4125716A, “Methoxymethyl esters of substituted imidazolidinyl-3-methyl-3-cephem-4-carboxylic acids” (Bristol-Myers Company, priority 1977, dated 1978).

Data set [1] concerns Streptococus pneumoniae A9585. Description: MIC, tube dilution technique, Streptococcus pneumoniae A9585. The class given is cell-based. Particulars: overnight, Nutrient Broth, 37° C., read-out: Minimum Inhibitory Concentration. From the text: (§1) The methoxymethyl esters of hetacephalexin and hetacefadroxil are the compounds of Formula I wherein R^1 is hydrogen and hydroxy, respectively.

For data set [2], the system named is Streptococcus pyogenes A9604. Description: MIC, tube dilution technique, Streptococcus pyogenes A9604. The class given is cell-based. An excerpt: (§2) […]. The methoxymethyl esters of hetacephalexin and hetacefadroxil are the compounds of Formula I wherein R^1 is hydrogen and hydroxy, respectively.
For data set [3], the system named is Staphylococcus aureus A9537. Description: MIC, tube dilution technique, Staphylococcus aureus A9537. Type of data set: cell-based.
Source text: as §2

Another data set has as its system Escherichia coli A15119. Description: MIC, tube dilution technique, Escherichia coli A15119. Type of data set: cell-based.
Source text: as §2

Data set [4] relates to Klebsiella pneumoniae A15130. Description: MIC, tube dilution technique, Klebsiella pneumoniae A15130. The class given is cell-based.
Source text: as §2

The subject of the next data set is Proteus mirabilis A9900. Description: MIC, tube dilution technique, Proteus mirabilis A9900. The class given is cell-based.
Source text: as §2

The subject of another data set is Proteus morganii A15153. As to the kind of experiment: MIC, tube dilution technique, Proteus morganii A15153. The class given is cell-based. Particulars: Morganella morganii, overnight, Nutrient Broth, 37° C., read-out: Minimum Inhibitory Concentration.
Source text: as §1

Data set [5] relates to Serratia marcescens A20019. As to the kind of experiment: MIC, tube dilution technique, Serratia marcescens A20019. Particulars: overnight, Nutrient Broth, 37° C., read-out: Minimum Inhibitory Concentration. The class given is cell-based.
Source text: as §1

Data set [6] concerns Enterobacter cloacae A9659. As to the kind of experiment: MIC, tube dilution technique, Enterobacter cloacae A9659. The class given is cell-based. The note with it: overnight, Nutrient Broth, 37° C., read-out: Minimum Inhibitory Concentration.
Source text: as §1

In data set [7] the test system is Enterobacter cloacae A9656. As to the kind of experiment: MIC, tube dilution technique, Enterobacter cloacae A9656. The note with it: overnight, Nutrient Broth, 37° C., read-out: Minimum Inhibitory Concentration. The class given is cell-based.
Source text: as §1

Data set [8] relates to Pseudomonas aeruginosa A9843A. Description: MIC, tube dilution technique, Pseudomonas aeruginosa A9843A. The class given is cell-based. Particulars: read-out: Minimum Inhibitory Concentration.
Source text: as §2

The conditions of data set [9]: cited from earlier work.
Data set [10] in a line: Antibiotic concentrations of dosing solutions retained for assay (cup-plate assay, CHCl3 extract). Particulars: pH 7.4 phosphate buffer / CHCl3. The class given is physicochemical.
Procedure: (§3) The dosing solutions were stored in an ice bath, used within 6 hours of preparation and an aliquot of each solution was retained for assay.
Dosing solutions were diluted with acetone:1% pH 6 phosphate buffer (1:1) and assayed similar to plasma.
The nature of data set [11]: Tissue levels and tissue penetration following oral administration. The class given is in vivo, male Sprague-Dawley rats. The note with it: rat.
Procedure: as §3
(§4) Rats in each treatment group were administered 1 ml of dosing solution per 100 g of body weight. The four additional control rats were administered a glycerol formal:deionized water (1:1) solution (1ml/100 g b.w.) to serve as a vehicle control group.
Four rats from each treatment group and one rat from the vehicle control group were killed 15, 30, 60 and 120 minutes after dosing. The rats were killed by exsanguination at the bifurcation of the femoral arteries while they were under light ether anesthesia. Approximately 10 ml of blood were obtained from each rat in 10 ml disposable syringes which had been previously rinsed with a 1% Na heparin in 0.9% NaCl solution. Each sample was immediately transferred from the syringe, after removing the needle, to a heparinized vacutainer tube, gently inverted a few times to mix the anticoagulant and centrifuged at 3000 rpm for 5 minutes in a refrigerated centrifuge at 4° C. to separate plasma. Plasma was transferred to a polypropylene snap-cap tube and stored at -20° C. until assayed. […]
The conditions of data set [12]: rat, in vivo, po, 200 mg/kg.
Procedure: as §3, §4
(§5) Four rats from each treatment group and one rat from the vehicle control group were killed 15, 30, 60 and 120 minutes after dosing. The rats were killed by exsanguination at the bifurcation of the femoral arteries while they were under light ether anesthesia. Approximately 10 ml of blood were obtained from each rat in 10 ml disposable syringes which had been previously rinsed with a 1% Na heparin in 0.9% NaCl solution. Each sample was immediately transferred from the syringe, after removing the needle, to a heparinized vacutainer tube, gently inverted a few times to mix the anticoagulant and centrifuged at 3000 rpm for 5 minutes in a refrigerated centrifuge at 4° C. to separate plasma. Plasma was transferred to a polypropylene snap-cap tube and stored at -20° C. until assayed. Lungs and brains were removed immediately after exsanguination, rinsed with ice-cold 0.9% NaCl solution, blotted dry with gauze, wrapped separately in pieces of aluminum foil, placed in dry ice for quick freezing and stored at -20° C. until assayed.
(§6) Plasma samples were diluted with an equal volume of acetone and further diluted with a 1:1 mixture of acetone:1% pH6 phosphate buffer to a concentration approximating the midpoint of the standard curve. Tissues were homogenized with 2 volumes of 1% pH 6 phosphate buffer in a glass homogenizer with a motor driven teflon pestle. Equal volumes of homogenate and acetone were mixed and, following centrifugation, the supernatant was diluted for assay in a manner similar to plasma. Dosing solutions were diluted with acetone:1% pH 6 phosphate buffer (1:1) and assayed similar to plasma.
For data set [13] the following is noted: rat, in vivo, po, 200 mg/kg. This is another data set of the same source.
Procedure: as §3, §4, §5, §6
The nature of data set [14]: in vivo. The note with it: rat, po, 200 mg/kg; for concentration at 0.5 h / concentration at 1 h / concentration at 2 h: Plasma Level.
Procedure: as §3, §4, §5, §6
The nature of data set [15]: in vivo. Particulars: rat, po, 200 mg/kg, Brain Level.
Procedure: as §3, §4, §5, §6
Data set [16] in a line: in vivo. Particulars: rat, po, 200 mg/kg; for Kp at 0.5 h / Kp at 1 h / Kp at 2 h / Kp at […]: Brain to Plasma Ratio.
Procedure: as §3, §4, §5, §6
Data set [17] is described as follows: in vivo. Particulars: rat, po, 200 mg/kg, Lung Level.
Procedure: as §3, §4, §5, §6
A short description of data set [18]: in vivo. The note with it: rat, po, 200 mg/kg.
Procedure: as §3, §4, §5, §6
Setting [19] is: Streptococcus pyogenes A9604, overnight, Nutrient Broth, 37° C., read-out: Minimum Inhibitory Concentration.
[20] abbreviates: A9537, Staph aureus + 50% serum, A9537, overnight, Nutrient Broth, 37° C., read-out: Minimum Inhibitory Concentration.
The mark [21] stands for this setting: A9537, Staphylococcus aureus A9537, overnight, Nutrient Broth, 37° C., read-out: Minimum Inhibitory Concentration.
[22] abbreviates: Escherichia coli A15119, overnight, Nutrient Broth, 37° C., read-out: Minimum Inhibitory Concentration.
[23] abbreviates: Klebsiella pneumoniae A15130, overnight, Nutrient Broth, 37° C., read-out: Minimum Inhibitory Concentration.
Setting [24] is: Proteus mirabilis A9900, overnight, Nutrient Broth, 37° C., read-out: Minimum Inhibitory Concentration.

In brackets after ≈: the same amount, converted by molar mass. Read-outs that look alike come from different tables or passages of the source.

Take `CC1=C(C(=O)O)N2C(=O)[C@@H](NC(=O)[C@H](N)c3ccc(O)cc3)[C@H]2SC1` [Cefadroxil, cefadroxil, reference compound]: the MIC in [1] came out at 1 µg/mL (≈ 2.75 µM); in [2] (setting [19]), 0.25 µg/mL (≈ 0.688 µM); in data set [3] (setting [20]), 2 µg/mL; in [3] (setting [21]), 1 µg/mL (≈ 2.75 µM); with Escherichia coli A15119 (setting [22]), 16 µg/mL (≈ 44 µM); in data set [4] (setting [23]), 32 µg/mL (≈ 88.1 µM). In addition, the MIC is 8 µg/mL (≈ 22 µM) in the data set with Proteus mirabilis A9900 (setting [24]); more than 125 µg/mL in the data set with Proteus morganii A15153; more than 125 µg/mL in [5]; more than 125 µg/mL in data set [6]; more than 125 µg/mL in data set [7]; more than 125 µg/mL in [8]. The lipid solubility result in data set [9] (known parent compound) was “lipid-insoluble”. Also, in data set [9] (pH of blood plasma), the “ionization and water solubility” value was “ionized, water-soluble”.
For `CC1=C(C(=O)O)N2C(=O)[C@@H](NC(=O)[C@H](N)c3ccccc3)[C@H]2SC1` [Cephalexin, cephalexin, reference compound], the MIC turned out to be 0.5 µg/mL (≈ 1.44 µM) in data set [2] (Streptococcus pyogenes, A9604, read-out: Minimum Inhibitory Concentration); 2 µg/mL in [3] (A9537, read-out: Minimum Inhibitory Concentration, Staph aureus + 50% serum, A9537, overnight, Nutrient Broth, 37° C.); 1 µg/mL (≈ 2.88 µM) in data set [3] (A9537, read-out: Minimum Inhibitory Concentration, Staphylococcus aureus A9537, overnight, Nutrient Broth, 37° C.); 8 µg/mL (≈ 23 µM) with Escherichia coli A15119 (Escherichia coli, A15119, read-out: Minimum Inhibitory Concentration); 16 µg/mL (≈ 46.1 µM) in data set [4] (Klebsiella pneumoniae, A15130, read-out: Minimum Inhibitory Concentration); 4 µg/mL (≈ 11.5 µM) in the data set on Proteus mirabilis A9900 (Proteus mirabilis, A9900, read-out: Minimum Inhibitory Concentration). Besides, the MIC (in the data set with Proteus morganii A15153; in data set [5]; in [6]; in [7]; in data set [8]) was more than 125 µg/mL in each case.
Turning to `COCOC(=O)C1=C(C)CSC2C(N3C(=O)[C@@H](c4ccc(O)cc4)NC3(C)C)C(=O)N12` (stereo partly drawn) [Methoxymethyl Ester of Hetacefadroxil], the MIC in data set [1] is 1 µg/mL (≈ 2.23 µM); in [2] (setting [19]) it was 0.25 µg/mL (≈ 0.559 µM); in data set [3] (setting [20]), 2 µg/mL; in data set [3] (setting [21]), 1 µg/mL (≈ 2.23 µM); with Escherichia coli A15119 (setting [22]) it was 32 µg/mL (≈ 71.5 µM); in data set [4] (setting [23]), 63 µg/mL (≈ 141 µM). Further, the MIC is 8 µg/mL (≈ 17.9 µM) in the data set on Proteus mirabilis A9900 (setting [24]); 125 µg/mL (≈ 279 µM) in the data set with Proteus morganii A15153; more than 125 µg/mL in data set [5]; more than 125 µg/mL in data set [6]; 125 µg/mL (≈ 279 µM) in data set [7]; more than 125 µg/mL in data set [8].
For orientation: Tmax means the time from dosing to the highest level. As to `COCOC(=O)C1=C(C)CSC2C(N3C(=O)[C@@H](c4ccccc4)NC3(C)C)C(=O)N12` (stereo partly drawn) [Methoxymethyl Ester of Hetacephalexin], the MIC turned out to be 1 µg/mL (≈ 2.32 µM) in data set [1]; 0.25 µg/mL (≈ 0.579 µM) in [2] (setting [19]); 2 µg/mL in data set [3] (setting [20]); 1 µg/mL (≈ 2.32 µM) in data set [3] (setting [21]); 8 µg/mL (≈ 18.5 µM) with Escherichia coli A15119 (setting [22]); 16 µg/mL (≈ 37.1 µM) in data set [4] (setting [23]). Moreover, the MIC in the data set on Proteus mirabilis A9900 (setting [24]) was 8 µg/mL (≈ 18.5 µM); in the data set with Proteus morganii A15153, 125 µg/mL (≈ 290 µM); in [5], more than 125 µg/mL; in data set [6] it was 125 µg/mL (≈ 290 µM); in data set [7], 125 µg/mL (≈ 290 µM); in data set [8], more than 125 µg/mL. In [10], the “CHCl3 extractability / partition into CHCl3” value is listed as “all of the antibiotic activity was CHCl3 extractable”. Besides, the “penetration of tissue cell membranes and blood-brain barrier compared with cephalexin” value in [11] was “more readily penetrates tissue cell membranes and crosses the blood-brain barrier”. Further, the absorption result in [12] is “rapidly absorbed”. The “Lung to Plasma Ratio × 100, mean” value in data set [13] (15 min) came to 82.6; in [13] (30 min), 60.0; in data set [13] (60 min), 67.2; in data set [13] (120 min), 33.0. In addition, the Tmax was not above 15 min in “in vivo [14]”, approximately 15 min in the data set “in vivo [16]” and approximately 15 min in “in vivo [18]”. For the same compound, the concentration at 0.5 h in “in vivo [14]” was found to be 40000 ng/mL; in “in vivo [14]” (mean), 45500 ng/mL; in the data set “in vivo [15]”, 1700 ng/g; in the data set “in vivo [15]” (mean) it was 2200 ng/g; in the data set “in vivo [17]” it was 23000 ng/g; in the data set “in vivo [17]” (mean) it was 27000 ng/g. Further, the concentration at 1 h in the data set “in vivo [14]” is 36000 ng/mL; in “in vivo [14]” (mean) it was 34200 ng/mL; in “in vivo [15]”, 1700 ng/g; in the data set “in vivo [15]” (mean), 1800 ng/g; in “in vivo [17]”, 22000 ng/g; in “in vivo [17]” (mean), 22300 ng/g. In addition, the concentration at 2 h was 11000 ng/mL in the data set “in vivo [14]”; 14500 ng/mL in “in vivo [14]” (mean); 500 ng/g in “in vivo [15]”; 500 ng/g in “in vivo [15]” (mean); 4100 ng/g in the data set “in vivo [17]”; 4700 ng/g in “in vivo [17]” (mean). The Kp at 0.5 h worked out at 0.042 in “in vivo [16]” and 0.047 in the data set “in vivo [16]” (mean). In addition, the Kp at 1 h in “in vivo [16]” came to 0.047; in “in vivo [16]” (mean), 0.051. Besides, the Kp at 2 h in “in vivo [16]” is 0.046; in the data set “in vivo [16]” (mean) it was 0.035. Moreover, the Kp at […] in the data set “in vivo [16]” was 0.056; in the data set “in vivo [16]” (mean), 0.058. Moreover, the Kp in the data set “in vivo [16]” (brain peak as percent of plasma level) was approximately 0.06; in the data set “in vivo [18]” it was approximately 0.83.
